Measured values as given in ChEMBL document CHEMBL4819104, “Discovery of 2-amino-3-amido-5-aryl-pyridines as highly potent, orally bioavailable, and efficacious PERK kinase inhibitors” (Bioorg Med Chem Lett, 2021).
≈ marks a conversion by molar mass, not a printed value.

Experiments:
[1] = Aqueous solubility of the compound; type: physicochemical; details: buffer
[2] = Efflux ratio of apparent permeability in human Caco-2 cells; type: ADME, cell-based
[3] = Plasma protein binding in mouse; type: ADME, cell-free; details: read-out: PPB (converted)
[4] = Plasma protein binding in dog; type: ADME, cell-free, Canis lupus familiaris; details: read-out: PPB (converted)
[5] = Half life in human hepatocytes; type: ADME, cell-based, Hepatocyte
[6] = Half life in mouse hepatocytes; type: ADME, cell-based, Hepatocyte
[7] = Half life in dog hepatocytes; type: ADME, cell-based, Canis lupus familiaris, Hepatocyte
[8] = tested on: Tyrosine-protein kinase ABL1 (Homo sapiens), P00519 [F317L]; test: Inhibition of human non-phosphorylated ABL1 F317L mutant (S229 to K512 residues) expressed in mammalian expression system assessed as residual activity at 10 uM by Kinomescan method relative to control
[9] = molecular target: Aurora kinase B (Homo sapiens) (UniProt Q96GD4); test: Inhibition of wild-type human partial length AURKB (D25 to A303 residues) expressed in mammalian expression system assessed as residual activity at 10 uM by Kinomescan method relative to control
[10] = molecular target: Epithelial discoidin domain-containing receptor 1 (Homo sapiens) (UniProt Q08345); test: Inhibition of wild-type human partial length DDR1 (R565 to V876 residues) expressed in bacterial expression system assessed as residual activity at 10 uM by Kinomescan method relative to control
[11] = molecular target: T1, Mitogen-activated protein kinase 12 (Homo sapiens) (UniProt P53778); test: Inhibition of wild-type human full length p38-gamma (M1 to L367 residues) expressed in mammalian expression system assessed as residual activity at 10 uM by Kinomescan method relative to control
T1 sequence (whole entry): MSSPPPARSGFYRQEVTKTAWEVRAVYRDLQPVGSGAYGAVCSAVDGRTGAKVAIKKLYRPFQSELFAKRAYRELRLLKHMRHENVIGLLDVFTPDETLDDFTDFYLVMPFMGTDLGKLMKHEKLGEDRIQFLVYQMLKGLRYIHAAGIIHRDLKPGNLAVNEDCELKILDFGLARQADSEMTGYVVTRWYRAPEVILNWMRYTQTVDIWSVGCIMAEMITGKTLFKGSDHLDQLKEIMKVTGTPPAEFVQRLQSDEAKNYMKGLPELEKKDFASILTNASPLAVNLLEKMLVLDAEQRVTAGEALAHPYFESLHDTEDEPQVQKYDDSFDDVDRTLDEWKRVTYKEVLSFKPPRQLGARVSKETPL

[12] = molecular target: Platelet-derived growth factor receptor beta (Homo sapiens) (UniProt P09619); test: Inhibition of wild-type human partial length PDGFRbeta (V582 to Y1009 residues) expressed in bacterial expression system assessed as residual activity at 10 uM by Kinomescan method relative to control
[13] = molecular target: T2, Receptor-interacting serine/threonine-protein kinase 1 (Homo sapiens) (UniProt Q13546); test: Inhibition of wild-type human partial length RIPK1 (M1 to K305 residues) expressed in bacterial expression system assessed as residual activity at 10 uM by Kinomescan method relative to control
T2 sequence (whole entry): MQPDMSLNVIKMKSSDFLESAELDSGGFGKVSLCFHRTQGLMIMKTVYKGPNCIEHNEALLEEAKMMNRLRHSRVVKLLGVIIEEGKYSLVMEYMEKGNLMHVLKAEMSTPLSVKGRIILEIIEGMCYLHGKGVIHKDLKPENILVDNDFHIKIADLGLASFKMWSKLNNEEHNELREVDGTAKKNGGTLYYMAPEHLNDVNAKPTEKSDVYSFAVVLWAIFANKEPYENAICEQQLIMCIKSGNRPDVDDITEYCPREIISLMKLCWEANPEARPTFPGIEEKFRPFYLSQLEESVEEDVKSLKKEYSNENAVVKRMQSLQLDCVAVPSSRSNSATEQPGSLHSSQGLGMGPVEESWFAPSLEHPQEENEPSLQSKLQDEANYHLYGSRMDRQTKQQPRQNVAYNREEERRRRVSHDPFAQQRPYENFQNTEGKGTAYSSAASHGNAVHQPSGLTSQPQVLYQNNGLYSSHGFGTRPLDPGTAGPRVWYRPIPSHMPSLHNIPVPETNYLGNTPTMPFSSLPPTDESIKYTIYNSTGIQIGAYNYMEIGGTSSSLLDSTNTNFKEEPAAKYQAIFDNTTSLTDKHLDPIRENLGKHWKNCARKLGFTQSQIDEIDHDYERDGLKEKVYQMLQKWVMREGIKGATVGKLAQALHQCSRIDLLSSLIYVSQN

[14] = molecular target: Proto-oncogene tyrosine-protein kinase Src (Homo sapiens) (UniProt P12931); test: Inhibition of wild-type human partial length SRC (L240 to L536 residues) expressed in bacterial expression system assessed as residual activity at 10 uM by Kinomescan method relative to control
[15] = molecular target: BDNF/NT-3 growth factors receptor (Homo sapiens) (UniProt Q16620); test: Inhibition of wild-type human partial length TRKB (Q547 to G838 residues) expressed in mammalian expression system assessed as residual activity at 10 uM by Kinomescan method relative to control
[16] = Cmax in mouse at 10 mg/kg, po; type: ADME, organism-based; set-up: route oral, dose 10 mg/kg; details: in vivo
[17] = AUC (0 to last) in mouse at 10 mg/kg, po; type: ADME, organism-based; set-up: time 0 - last, route oral, dose 10 mg/kg; details: in vivo
[18] = Half life in mouse at 10 mg/kg, po; type: ADME, organism-based; details: in vivo
[19] = tested on: 786-0; test: Anticancer activity against human 786-0 cells xenografted in clear cell renal cell carcinoma mouse model assessed as tumor growth inhibition at 10 mg/kg measured at day 28 relative to control; type: functional; details: 786-0, 672 h, read-out: TGI

Chain of BDNF/NT-3 growth factors receptor (Homo sapiens) (Q16620 32-822 limits assumed): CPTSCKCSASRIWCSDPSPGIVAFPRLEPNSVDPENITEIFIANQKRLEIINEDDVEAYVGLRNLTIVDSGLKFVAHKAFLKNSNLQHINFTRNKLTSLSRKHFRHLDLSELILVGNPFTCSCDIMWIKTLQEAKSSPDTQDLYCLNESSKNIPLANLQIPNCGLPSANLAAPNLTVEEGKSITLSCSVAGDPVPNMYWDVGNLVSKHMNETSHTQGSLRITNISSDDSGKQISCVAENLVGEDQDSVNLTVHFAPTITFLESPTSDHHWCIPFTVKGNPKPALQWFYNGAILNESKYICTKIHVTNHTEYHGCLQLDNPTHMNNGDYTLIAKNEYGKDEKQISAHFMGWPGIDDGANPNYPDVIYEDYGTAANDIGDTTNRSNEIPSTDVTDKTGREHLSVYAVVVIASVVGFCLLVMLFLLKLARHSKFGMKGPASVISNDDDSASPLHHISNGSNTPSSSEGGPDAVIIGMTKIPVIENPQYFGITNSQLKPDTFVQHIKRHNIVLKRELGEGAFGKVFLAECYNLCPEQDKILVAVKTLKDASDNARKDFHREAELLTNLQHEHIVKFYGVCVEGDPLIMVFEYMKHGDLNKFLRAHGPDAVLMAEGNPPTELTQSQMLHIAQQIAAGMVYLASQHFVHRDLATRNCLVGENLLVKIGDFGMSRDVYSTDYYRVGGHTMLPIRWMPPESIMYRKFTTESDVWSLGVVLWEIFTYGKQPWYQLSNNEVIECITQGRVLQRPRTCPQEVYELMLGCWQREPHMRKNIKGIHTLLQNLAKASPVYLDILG
Chain of Tyrosine-protein kinase ABL1 (Homo sapiens), P00519 [F317L] (P00519 whole entry F317L, the tested form may be a part): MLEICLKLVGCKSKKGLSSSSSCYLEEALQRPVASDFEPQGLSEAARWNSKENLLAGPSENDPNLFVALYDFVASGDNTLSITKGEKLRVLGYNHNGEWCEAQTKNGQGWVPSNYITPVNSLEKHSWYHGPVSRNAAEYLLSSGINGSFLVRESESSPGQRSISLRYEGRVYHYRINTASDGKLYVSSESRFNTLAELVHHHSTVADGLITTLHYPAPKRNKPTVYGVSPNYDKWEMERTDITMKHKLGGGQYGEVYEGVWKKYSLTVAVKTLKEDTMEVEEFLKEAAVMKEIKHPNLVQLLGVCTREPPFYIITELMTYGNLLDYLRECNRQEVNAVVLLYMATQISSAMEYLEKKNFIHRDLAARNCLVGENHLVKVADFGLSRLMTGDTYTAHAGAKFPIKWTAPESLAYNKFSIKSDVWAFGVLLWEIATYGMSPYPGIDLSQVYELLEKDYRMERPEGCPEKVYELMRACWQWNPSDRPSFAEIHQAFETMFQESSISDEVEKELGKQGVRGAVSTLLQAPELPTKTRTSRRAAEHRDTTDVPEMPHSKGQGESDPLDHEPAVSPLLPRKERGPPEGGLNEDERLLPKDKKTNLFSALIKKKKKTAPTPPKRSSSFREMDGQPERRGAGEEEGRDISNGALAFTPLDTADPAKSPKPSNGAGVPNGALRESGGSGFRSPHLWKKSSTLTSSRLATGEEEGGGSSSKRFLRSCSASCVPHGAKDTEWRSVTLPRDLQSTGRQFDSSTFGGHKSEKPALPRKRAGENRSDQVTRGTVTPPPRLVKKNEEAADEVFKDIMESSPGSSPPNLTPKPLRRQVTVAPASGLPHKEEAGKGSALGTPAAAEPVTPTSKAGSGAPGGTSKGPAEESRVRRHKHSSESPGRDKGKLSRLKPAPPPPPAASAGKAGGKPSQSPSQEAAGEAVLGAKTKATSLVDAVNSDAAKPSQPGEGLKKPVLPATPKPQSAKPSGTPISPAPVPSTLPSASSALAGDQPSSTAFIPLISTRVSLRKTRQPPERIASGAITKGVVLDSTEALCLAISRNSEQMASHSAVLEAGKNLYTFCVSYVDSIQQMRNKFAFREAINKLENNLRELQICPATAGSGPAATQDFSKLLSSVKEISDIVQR
Chain of Epithelial discoidin domain-containing receptor 1 (Homo sapiens) (Q08345 whole entry, the tested form may be a part): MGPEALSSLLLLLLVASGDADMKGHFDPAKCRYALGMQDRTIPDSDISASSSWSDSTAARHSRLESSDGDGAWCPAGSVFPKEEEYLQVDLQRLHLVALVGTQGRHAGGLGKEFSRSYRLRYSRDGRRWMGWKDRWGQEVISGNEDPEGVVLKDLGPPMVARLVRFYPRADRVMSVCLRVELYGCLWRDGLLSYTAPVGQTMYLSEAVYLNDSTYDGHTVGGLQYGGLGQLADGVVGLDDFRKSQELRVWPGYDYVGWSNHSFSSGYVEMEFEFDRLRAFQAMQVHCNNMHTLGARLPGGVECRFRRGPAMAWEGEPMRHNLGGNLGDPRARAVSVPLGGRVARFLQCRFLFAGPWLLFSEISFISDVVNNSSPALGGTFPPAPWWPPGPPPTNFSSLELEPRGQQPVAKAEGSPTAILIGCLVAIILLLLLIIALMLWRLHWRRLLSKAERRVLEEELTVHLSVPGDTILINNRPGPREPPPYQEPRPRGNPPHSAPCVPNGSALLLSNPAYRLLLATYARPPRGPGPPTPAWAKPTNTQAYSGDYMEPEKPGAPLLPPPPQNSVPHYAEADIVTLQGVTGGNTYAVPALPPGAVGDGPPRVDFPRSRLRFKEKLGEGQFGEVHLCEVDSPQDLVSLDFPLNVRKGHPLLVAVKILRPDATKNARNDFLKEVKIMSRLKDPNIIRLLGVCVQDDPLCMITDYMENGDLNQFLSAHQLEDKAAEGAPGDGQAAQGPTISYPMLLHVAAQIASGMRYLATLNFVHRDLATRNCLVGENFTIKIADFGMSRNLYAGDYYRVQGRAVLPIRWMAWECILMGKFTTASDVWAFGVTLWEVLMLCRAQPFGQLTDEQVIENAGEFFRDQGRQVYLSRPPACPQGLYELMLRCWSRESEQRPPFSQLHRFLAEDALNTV
Chain of Aurora kinase B (Homo sapiens) (Q96GD4 whole entry, the tested form may be a part): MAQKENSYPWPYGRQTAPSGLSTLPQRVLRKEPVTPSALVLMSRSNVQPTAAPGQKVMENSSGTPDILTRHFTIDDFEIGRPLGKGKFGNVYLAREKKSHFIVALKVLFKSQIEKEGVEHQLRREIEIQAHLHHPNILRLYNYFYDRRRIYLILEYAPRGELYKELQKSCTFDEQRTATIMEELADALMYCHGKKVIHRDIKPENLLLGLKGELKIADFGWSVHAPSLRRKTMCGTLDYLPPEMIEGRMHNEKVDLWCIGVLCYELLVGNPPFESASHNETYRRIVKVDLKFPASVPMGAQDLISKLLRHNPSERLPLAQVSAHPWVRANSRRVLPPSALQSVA
Chain of Proto-oncogene tyrosine-protein kinase Src (Homo sapiens) (P12931 2-536 limits assumed): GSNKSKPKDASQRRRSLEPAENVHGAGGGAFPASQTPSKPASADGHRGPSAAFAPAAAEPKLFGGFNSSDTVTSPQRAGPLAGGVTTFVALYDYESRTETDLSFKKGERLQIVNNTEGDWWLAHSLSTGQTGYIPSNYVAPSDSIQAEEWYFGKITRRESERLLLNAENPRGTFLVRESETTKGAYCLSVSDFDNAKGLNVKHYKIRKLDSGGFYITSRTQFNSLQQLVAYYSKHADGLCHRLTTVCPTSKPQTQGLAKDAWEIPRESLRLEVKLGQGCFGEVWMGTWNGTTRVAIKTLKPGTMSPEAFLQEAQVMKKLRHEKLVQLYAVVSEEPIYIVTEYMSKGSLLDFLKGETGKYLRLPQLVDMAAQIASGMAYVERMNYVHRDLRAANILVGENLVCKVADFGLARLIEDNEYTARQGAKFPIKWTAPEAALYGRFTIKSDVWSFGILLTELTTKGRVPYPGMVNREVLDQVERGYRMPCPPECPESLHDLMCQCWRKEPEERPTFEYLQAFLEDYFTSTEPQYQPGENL
Chain of Platelet-derived growth factor receptor beta (Homo sapiens) (P09619 whole entry, the tested form may be a part): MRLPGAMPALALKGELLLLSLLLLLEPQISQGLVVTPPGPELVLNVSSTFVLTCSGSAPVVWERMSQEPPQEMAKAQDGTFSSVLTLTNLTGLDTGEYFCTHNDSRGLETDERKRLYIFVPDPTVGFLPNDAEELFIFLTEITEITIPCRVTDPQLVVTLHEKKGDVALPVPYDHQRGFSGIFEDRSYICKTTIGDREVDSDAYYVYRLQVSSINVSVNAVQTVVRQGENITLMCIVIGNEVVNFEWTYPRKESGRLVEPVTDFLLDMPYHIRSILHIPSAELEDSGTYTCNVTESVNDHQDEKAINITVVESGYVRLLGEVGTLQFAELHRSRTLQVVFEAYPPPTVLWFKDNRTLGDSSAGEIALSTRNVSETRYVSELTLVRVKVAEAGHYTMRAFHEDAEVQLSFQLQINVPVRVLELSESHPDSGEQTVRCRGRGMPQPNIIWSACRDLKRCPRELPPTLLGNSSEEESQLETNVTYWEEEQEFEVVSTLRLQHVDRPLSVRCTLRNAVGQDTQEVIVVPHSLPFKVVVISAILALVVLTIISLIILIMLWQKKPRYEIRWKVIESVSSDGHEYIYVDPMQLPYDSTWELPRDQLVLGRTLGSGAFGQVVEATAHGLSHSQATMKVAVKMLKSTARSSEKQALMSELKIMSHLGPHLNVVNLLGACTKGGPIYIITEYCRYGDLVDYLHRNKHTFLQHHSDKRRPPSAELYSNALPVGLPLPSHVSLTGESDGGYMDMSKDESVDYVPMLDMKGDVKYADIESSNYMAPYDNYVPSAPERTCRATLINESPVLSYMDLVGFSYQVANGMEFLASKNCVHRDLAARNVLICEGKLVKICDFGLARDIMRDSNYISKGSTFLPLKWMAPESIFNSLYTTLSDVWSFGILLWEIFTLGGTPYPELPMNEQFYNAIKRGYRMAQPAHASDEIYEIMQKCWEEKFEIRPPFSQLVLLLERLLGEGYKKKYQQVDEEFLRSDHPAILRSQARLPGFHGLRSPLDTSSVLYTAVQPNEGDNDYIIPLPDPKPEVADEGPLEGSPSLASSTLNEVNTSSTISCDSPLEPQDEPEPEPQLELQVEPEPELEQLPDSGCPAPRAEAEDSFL

solubility [1]: 10 µM (≈ 4.69 µg/mL)
efflux ratio [2]: 2.3
fraction unbound [3]: 0.006
fraction unbound [4]: 0.002
half-life [5]: 5.17 h
half-life [6]: 1.05 h
half-life [7]: 8.22 h
Activity [8]: 100%
Activity [9]: 75%
Activity [10]: 100%
Activity [11]: 87%
Activity [12]: 60%
Activity [13]: 100%
Activity [14]: 97%
Activity [15]: 100%
Cmax [16]: 3350 ng/mL
AUC(0-t) [17]: 5150 ng·h/mL
half-life [18]: 2 h
Structure (SMILES): CCc1cc(NC(=O)[C@H](O)c2cc(F)cc(F)c2)ccc1-c1cnc(N)c(C(=O)NC(C)C)c1
inhibition in vivo at 10 mg/kg [19]: 40%
